The numbers were not newly measured in patent publication US10226042B2, “Synergistic pre-emergent and post-emergent weed control compositions and methods of use thereof” (BAYER INTELLECTUAL PROPERTY GMBH, priority 2009, dated 2019), which cites them from elsewhere.

Structures are written as SMILES.

The conditions of the data set: stated in words, no test described.

Take `COc1c(Cl)ccc(Cl)c1C(=O)O` [dicamba]: the water solubility entry is “water soluble”. Take `O=C(O)COc1ccc(Cl)cc1Cl` [2,4-D]: the water solubility entry is recorded as “water soluble”.
